What all share (type): in vivo, rat
The nature of data set [1]: serum levels of calcium, phosphate, MGP and BGP after subcutaneous bisphosphonate. On the procedure: Rats were fed rodent diet 5001 (Purina Mills Inc., St. […] Etidronate was dissolved with 0.15 M NaCl, titrated to pH 7.4 with dilute NaOH, and administered subcutaneously to forty-day-old male rats. Control animals received injections of 0.15 M NaCl only. […] At the times indicated in FIG. 1, each rat was anesthetized with metofane and a 400 μl sample of blood was withdrawn from the jugular vein. Blood samples were allowed to clot for 15 min at room temperature and serum was obtained after centrifugation in a clinical centrifuge and then frozen rapidly on dry ice and stored at -70° C. until later analysis. The same procedure was followed for the second time course experiment (FIG. 10), with the difference that the etidronate dose was increased to 32 mg per 100 g body weight. […] Two hours later, all rats were injected with etidronate at a dose of 8 mg/100 g (t=0), and 400 μl of blood were removed from each animal at the indicated times for biochemical analyses. […] In neither control group could we detect a significant change in serum levels of calcium, phosphate, or MGP at any time point. […] Rice et al. (1994) J. Bone Min. Res. 9: 567-576). Calcium levels in serum and other samples were determined colorimetrically using cresolphthalein complexone (Sigma) and phosphate levels in serum, effluent fractions, and other samples were determined calorimetrically as described (Chen et al. (1956) Anal. Chem. 28(11): 1756-1758). For determination of ionic calcium, freshly obtained blood samples were immediately placed into a 2.5 ml gold top vacutainer tube to avoid out gassing of CO2 and the associated shift in pH. […] Electrophoresis was carried out using 4 to 20% polyacrylamide gels (Novex, Inc., San Diego, Calif.) run in Tris-glycine buffer containing SDS. Protein sequencing was carried out on bands transferred to PVDF membranes using a Procise 494 Sequencer (ABI division, PE Biosystems, Foster City, Calif.).

Data set [2] can be described thus: serum levels of calcium and phosphate in rats treated with vitamin D plus warfarin. The settings on record: 84 h; for reduction of serum phosphate: two highest doses. The protocol: For measurement of mineral accumulation in arteries, each tissue was removed within 30 minutes of death and immediately frozen. Tissues were subsequently washed extensively with buffer and extracted with 1 ml of 10% formic acid for 24 h at room temperature, as described. Calcium levels in serum were determined colorimetrically using cresolphthalein complexone (Sigma) and phosphate levels in serum and in acid tissue extracts were determined calorimetrically as described (Zhu et al. (1994) Cardiology, 85: 370-377). Tissue sectioning and staining were carried out by Biomedical Testing Services, Inc., (San Diego, Calif.). […]

Data set [3] relates to warfarin-induced artery calcification. The data set can be described thus: artery calcification in rats treated with warfarin for 2 or 4 weeks. The following applies: both carotid arteries. The protocol: (§1) Tissues were subsequently washed extensively with buffer and extracted with 1 ml of 10% formic acid for 24 h at room temperature, as described. Calcium levels in serum were determined colorimetrically using cresolphthalein complexone (Sigma) and phosphate levels in serum and in acid tissue extracts were determined calorimetrically as described (Zhu et al. (1994) Cardiology, 85: 370-377). Tissue sectioning and staining were carried out by Biomedical Testing Services, Inc., (San Diego, Calif.). The effect of bisphosphonates on artery calcification was also examined in rats treated with warfarin alone using procedures which have been described elsewhere (Price et al. (1998) Arterioscler. Thromb. Vasc. Biol. 18: 1400-1407).

For data set [4], the system named is aorta calcification in rats treated with vitamin D plus warfarin. The data set can be described thus: von Kossa staining for calcification in rats treated with vitamin D plus warfarin. The settings on record: for Histology Score Observer #1 x ± S.D. / Histology Score Observer #2 x ± S.D.: 84 h; for dose that completely eliminated von Kossa staining for mineral in the abdominal aorta: 84 h after first vitamin D. The protocol: For measurement of mineral accumulation in arteries, each tissue was removed within 30 minutes of death and immediately frozen. Tissues were subsequently washed extensively with buffer and extracted with 1 ml of 10% formic acid for 24 h at room temperature, as described. Calcium levels in serum were determined colorimetrically using cresolphthalein complexone (Sigma) and phosphate levels in serum and in acid tissue extracts were determined calorimetrically as described (Zhu et al. (1994) Cardiology, 85: 370-377). Tissue sectioning and staining were carried out by Biomedical Testing Services, Inc., (San Diego, Calif.).
Male Sprague Dawley rats were fed ad libitum with rodent diet 5001 (Purina Mills Inc., St. Louis, Mo.), a diet that is 0.67% phosphorus and 0.95% calcium by weight. This diet contains 500 μg per kg of phylloquinone and has no added menadione. In all experiments, animals were killed by exsanguination while under metofane anesthetic, and selected tissues were removed immediately and fixed in 10% buffered formalin or frozen at −20° C. for later studies. All animal experiments were approved by the UCSD animal subjects committee.

A short description of data set [5]: weight, tibia length and serum calcium and phosphate in warfarin-treated rats. The following applies: for mg Ca dl serum / mg P dl serum: 4 weeks. The text has this:
This procedure induces artery calcification within 2 weeks without the presence of hypercalcemia.

The subject of data set [6] is vitamin D-induced artery calcification. The data set can be described thus: mineral phosphate accumulation in acid demineralization extracts of thoracic aorta and carotid arteries, vitamin D plus warfarin. The settings on record: for Artery Calcification Relative potency: relative to etidronate = 1. On the procedure: as §1, with “first” for “also”, “in which artery calcification was induced by treatment” for “treated”, “plus high doses of vitamin D. […] All animals were killed by exsanguination at 96 h. […] All animals were killed by exsanguination at 96 h after the first vitamin D dose. […] All animals were killed by exsanguination 96 h after the first vitamin D injection.” for “alone using procedures which have been described elsewhere (Price et al. (1998) Arterioscler. Thromb. Vasc. Biol. 18: 1400-1407).”

A short description of data set [7]: Sephacryl S300 gel filtration of serum. The following applies: serum 6 h after etidronate, concurrent warfarin. The protocol: The serum mineral complex was characterized by gel filtration using 25 ml columns of Sephacryl S-300 HR which were prepared in disposable plastic pipets and were equilibrated with 20 mM HEPES pH 7.4, 0.15 M NaCl and 10 mM CaCl2 at room temperature. Serum was obtained from rats 6 h after administration of etidronate at a dose of 8 mg/100 g, and 1 ml aliquots were immediately applied to the Sephacryl column. Fractions of 0.5 ml were then collected and analyzed to determine the level of phosphate and MGP (see below).

Where [8] appears, read: 0.025 mg P/kg/day plus warfarin.
Where [9] appears, read: 0.0004 mg P/kg/day sc, score 0-5.
[10] abbreviates: 0.002 mg P/kg/day sc, score 0-5.
[11] abbreviates: 0.010 mg P/kg/day sc, score 0-5.
Where [12] appears, read: 0.050 mg P/kg/day sc, score 0-5.
[13] abbreviates: 0.00036 mg P/kg/day sc, score 0-5 (5 most calcified).
Where [14] appears, read: 0.0018 mg P/kg/day sc, score 0-5.
[15] abbreviates: 0.009 mg P/kg/day sc, score 0-5.
Where [16] appears, read: 0.045 mg P/kg/day sc, score 0-5.
Where [17] appears, read: 15.4 mg warfarin per 100 g 2 h before 8 mg/100 g etidronate.

The structures appear in SMILES notation. “Also recorded” adds a separate entry of the source. Some results are limits rather than exact numbers.

Turning to `NCCCC(O)(P(=O)(O)O)P(=O)(O)O` [Alendronate, (4-amino-1-hydroxybutylidene)bis-phosphonate], in data set [1] (4 mg/100 g dose, 1, 2, 6, 12 and 24 h, data not shown), the “effect on serum calcium, phosphate and MGP levels” value was “no effect”. For the same compound, the “Serum Ca” value was determined as 13.3 ± 0.7 mg/dL in data set [2] (0.0004 mg P/kg/day) and 15.9 ± 0.4 mg/dL in data set [2] (0.01 mg P/kg/day). Moreover, the “Serum P” value in data set [2] (0.0004 mg P/kg/day) came out at 10.8 ± 1.2 mg/dL; in data set [2] (0.002 mg P/kg/day) it was 10.2 ± 0.6 mg/dL; in data set [2] (0.01 mg P/kg/day), 10.0 ± 0.9 mg/dL; in data set [2] (0.05 mg P/kg/day), 9.9 ± 0.5 mg/dL; in data set [2] (0.25 mg P/kg/day) it was 9.5 ± 0.7 mg/dL. Moreover, in data set [2], the “reduction of serum phosphate” value was “about 16%”. Further, the “nmol PO4 Carotid” value in data set [3] (setting [8]) stood at 374.0 ± 217.4 nmol; in data set [3] (0.25 mg P/kg/day plus warfarin), 63.7 ± 43.1 nmol. The “Histology Score Observer #1 x ± S.D.” value was 2.8 ± 1.0 in data set [4] (setting [9]); 2.5 ± 0.6 in data set [4] (setting [10]); 2.0 ± 1.8 in data set [4] (setting [11]); 0.8 ± 0.5 in data set [4] (setting [12]); 0.0 ± 0.0 in data set [4] (0.25 mg P/kg/day sc, score 0-5). Further, the “Histology Score Observer #2 x ± S.D.” value in data set [4] (setting [9]) is given as 3.3 ± 1.3; in data set [4] (setting [10]), 2.0 ± 0.8; in data set [4] (setting [11]), 2.5 ± 1.3; in data set [4] (setting [12]), 0.4 ± 0.5; in data set [4] (0.25 mg P/kg/day sc, score 0-5), 0.0 ± 0.0. Moreover, the “dose that completely eliminated von Kossa staining for mineral in the abdominal aorta” value in data set [4] came out at 0.25 mg P/kg/day. Moreover, the figures for the “mg Ca dl serum” value in data set [5] (setting [8]) and in data set [5] (0.25 mg P/kg/day plus warfarin) were 10.0 ± 0.1 mg/dL and 10.8 ± 0.1 mg/dL, respectively. Further, the “mg P dl serum” value was found to be 10.0 ± 0.1 mg/dL in data set [5] (setting [8]) and 10.9 ± 0.7 mg/dL in data set [5] (0.25 mg P/kg/day plus warfarin). For the same compound, the “effect on bone growth or weight gain” value in data set [5] (0.025 and 0.25 mg P/kg/day, warfarin 4 weeks) is listed as “without affecting bone growth or weight gain”.

Take `CCCCCN(C)CCC(O)(P(=O)(O)O)P(=O)(O)O` [Ibandronate, (1-hydroxy-3-(methylpentylamino)propylidene)bis-phosphonate]: the “Serum Ca” value in data set [2] (0.00036 mg P/kg/day) was 13.8 ± 0.6 mg/dL; in data set [2] (0.0018 mg P/kg/day), 15.5 ± 0.9 mg/dL; in data set [2] (0.009 mg P/kg/day), 14.9 ± 0.6 mg/dL; in data set [2] (0.045 mg P/kg/day), 15.4 ± 0.3 mg/dL. Besides, the “Serum P” value in data set [2] (0.00036 mg P/kg/day) amounted to 9.9 ± 0.5 mg/dL; in data set [2] (0.0018 mg P/kg/day) it was 10.3 ± 0.6 mg/dL; in data set [2] (0.009 mg P/kg/day), 10.4 ± 0.7 mg/dL; in data set [2] (0.045 mg P/kg/day) it was 9.9 ± 0.4 mg/dL. Also, in data set [2], the “reduction of serum phosphate” value is roughly 11%. In addition, the “Histology Score Observer #1 x ± S.D.” value in data set [4] (setting [13]) came out at 1.0 ± 0.8; in data set [4] (setting [14]) it was 0.0 ± 0.0; in data set [4] (setting [15]), 0.0 ± 0.0; in data set [4] (setting [16]) it was 0.0 ± 0.0. The “Histology Score Observer #2 x ± S.D.” value in data set [4] (setting [13]) is given as 1.0 ± 0.8; in data set [4] (setting [14]), 0.0 ± 0.0; in data set [4] (setting [15]), 0.0 ± 0.0; in data set [4] (setting [16]), 0.0 ± 0.0. For the same compound, in data set [4], the “dose that completely eliminated von Kossa staining for mineral in the abdominal aorta” value is on record as no less than 0.0018 mg P/kg/day. Besides, in data set [6] (84 h, FIG. 3), the “dose required to reduce the extent of mineralization by half in the thoracic aorta” value is reported as 0.0002 mg P/kg/day. Also, the “dose required to reduce the extent of mineralization by half in the carotid artery” value in data set [6] (84 h, FIG. 4) came out at 0.00018 mg P/kg/day. For the same compound, the “Artery Calcification Dose for 50% inhibition” value in data set [6] (daily subcutaneous dose, vitamin D-induced artery calcification, male rats initially 200 g) was 0.00019 mg P/kg/day. Also, the “subcutaneous dose required for 50% inhibition of artery calcification” value in data set [6] (rat, FIGS. 3 and 4) is on record as 0.2 μg P/kg/day. The “Artery Calcification Relative potency” value in data set [6] is given as 10500; in data set [6] (listed as ibandronate) it was 10,500.

For the compound `CC(=O)CC(c1ccccc1)c1c(O)c2ccccc2oc1=O` (centres unmarked) [warfarin], in data set [1] (setting [17]), the “effect on the increase in serum MGP following etidronate” value is “prevents the increase in serum MGP; also recorded: blocked the increase in serum MGP”; the “effect on the time course of the elevation in serum calcium and phosphate following etidronate” value is “did not affect”. For the same compound, in data set [1] (animals which did not receive etidronate), the “effect on serum levels of MGP” value is “no effect”. For the same compound, in data set [7], the “MGP levels in the high molecular weight position, of the level in vitamin K-replete, etidronate treated rats” value was found to be 5% and the “phosphate levels in the high molecular weight, excluded volume position vs vitamin K-replete, etidronate treated rats” value was “comparable”.

Source of the values: patent publication US6812034B2, “Fetuin-MGP-mineral complex in serum assayed to determine calcification risk” (The Regents of the University of California, priority 2000, dated 2004).
